# Assay results from the supplement of paper PMC11061612.
# Assays:
# [1] = tested on: SCC-15 (Oral Cavity Carcinoma); experiment: combination Emax (second highest fraction inhibited in the dose matrix, 72 h); higher = more inhibition; extreme values may be limits of the assay
# Procedure, shortened: (§1)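 Bliss excess equals the observed combination effect minus the expected value EA + EB − EA·EB, where EA and EB are the effects of each agent alone. Combination Emax is the second-highest inhibition within the matrix. Inhibition was scaled from CellTiter-Glo 2.0 luminescence, with 0 set by vehicle wells and 1 by blank wells, after 72 hours of two-drug dosing of cells plated in 1536-well plates.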
# [2] = tested on: NEC8 (Other Solid Carcinomas); experiment: as above
# Procedure, shortened: as §1
# [3] = tested on: KMOE-2 (Acute Myeloid Leukemia); experiment: as above
# Procedure, shortened: as §1
# [4] = tested on: OE19 (Esophageal Adenocarcinoma); experiment: as above
# Procedure, shortened: as §1
# [5] = tested on: VA-ES-BJ (Other Solid Carcinomas); experiment: as above
# Procedure, shortened: as §1
# [6] = tested on: OSC-20 (Oral Cavity Carcinoma); experiment: as above
# Procedure, shortened: as §1
# [7] = tested on: NCI-H1915 (Non-Small Cell Lung Carcinoma); experiment: as above
# Procedure, shortened: as §1
# [8] = tested on: TE-1 (Esophageal Squamous Cell Carcinoma); experiment: as above
# Procedure, shortened: as §1
# PWR-1E (Non-Cancerous) = experiment: as above
# Procedure, shortened: as §1
# [9] = tested on: SU8686 (Pancreatic Carcinoma); experiment: as above
# Procedure, shortened: as §1
# [10] = tested on: OVCAR-4 (Ovarian Carcinoma); experiment: as above
# Procedure, shortened: as §1
# [11] = tested on: HSC-4 (Oral Cavity Carcinoma); experiment: as above
# Procedure, shortened: as §1
# [12] = tested on: NUGC-3 (Gastric Carcinoma); experiment: as above
# Procedure, shortened: as §1
# [13] = tested on: NEC8 (Other Solid Carcinomas); experiment: Bliss excess, mean over the matrix (fraction); higher = more synergy
# Procedure, shortened: as §1
# [14] = tested on: KMOE-2 (Acute Myeloid Leukemia); experiment: as above
# Procedure, shortened: as §1
# [15] = tested on: HGC-27 (Gastric Carcinoma); experiment: as above
# Procedure, shortened: as §1
# [16] = tested on: OVCAR-4 (Ovarian Carcinoma); experiment: as above
# Procedure, shortened: as §1
# [17] = tested on: HSC-4 (Oral Cavity Carcinoma); experiment: as above
# Procedure, shortened: as §1
# [18] = tested on: C-4-I (Cervical Carcinoma); experiment: as above
# Procedure, shortened: as §1
# [19] = tested on: NUGC-3 (Gastric Carcinoma); experiment: as above
# Procedure, shortened: as §1
SMILES,combination Emax [1],combination Emax [2],combination Emax [3],combination Emax [4],combination Emax [5],combination Emax [6],combination Emax [7],combination Emax [8],combination Emax (PWR-1E (Non-Cancerous)),combination Emax [9],combination Emax [10],combination Emax [11],combination Emax [12],Bliss excess [13],Bliss excess [14],Bliss excess [15],Bliss excess [16],Bliss excess [17],Bliss excess [18],Bliss excess [19]
"CN(CCO)CC[C@H](CSc1ccccc1)Nc1ccc(S(=O)(=O)NC(=O)c2ccc(N3CCC([C@@H](O)c4ccccc4-c4ccc(Cl)cc4)CC3)cc2)cc1S(=O)(=O)C(F)(F)F [AZD4320] + C1CN(CCC1(C(=O)N[C@@H](CCO)C2=CC=C(C=C2)Cl)N)C3=NC=NC4=C3C=CN4 [Capivasertib] (first compound max 1 µM, 7x7, partner max 3 µM)",0.14,0.0891,0.828,0.333,0.224,0.0937,0.116,0.369,0.252,0.0053,0.0826,0.32,0.127,-0.0356,-0.0435,-0.0252,-0.0417,-0.0269,-0.0101,-0.039
"CN(CCO)CC[C@H](CSc1ccccc1)Nc1ccc(S(=O)(=O)NC(=O)c2ccc(N3CCC([C@@H](O)c4ccccc4-c4ccc(Cl)cc4)CC3)cc2)cc1S(=O)(=O)C(F)(F)F [AZD4320] + C=CCn1c(=O)c2cnc(Nc3ccc(N4CCN(C)CC4)cc3)nc2n1-c1cccc(C(C)(C)O)n1 [AZD1775] (first compound max 1 µM, partner max 1 µM)",0.551,0.414,1,0.33,0.458,0.119,0.853,0.824,0.338,0.238,0.662,0.585,0.764,0.0272,0.0656,-0.018,-0.0068,0.023,0.0656,-0.0346
"CN(CCO)CC[C@H](CSc1ccccc1)Nc1ccc(S(=O)(=O)NC(=O)c2ccc(N3CCC([C@@H](O)c4ccccc4-c4ccc(Cl)cc4)CC3)cc2)cc1S(=O)(=O)C(F)(F)F [AZD4320] + CCN(CCO)CCCOc1ccc2c(Nc3cc(CC(=O)Nc4cccc(F)c4)[nH]n3)ncnc2c1 [AZD2811] (first compound max 1 µM, 7x7, partner max 1 µM)",0.346,0.159,0.934,0.854,0.291,0.291,0.31,0.655,0.843,0.155,0.389,0.517,0.498,-0.0138,0.0171,0.032,0.045,-0.0335,0.0557,0.0077
"CN(CCO)CC[C@H](CSc1ccccc1)Nc1ccc(S(=O)(=O)NC(=O)c2ccc(N3CCC([C@@H](O)c4ccccc4-c4ccc(Cl)cc4)CC3)cc2)cc1S(=O)(=O)C(F)(F)F [AZD4320] + C[C@@H]1COCCN1C2=NC(=NC(=C2)C3(CC3)[S@](=N)(=O)C)C4=C5C=CNC5=NC=C4 [AZD6738] (first compound max 1 µM, 7x7, partner max 10 µM)",0.709,0.904,0.938,0.726,0.863,0.358,0.529,0.742,0.971,0.205,0.794,0.927,0.756,-0.0089,-0.0399,-0.0321,-0.0392,0.12,0.0036,-0.0445
"CN(CCO)CC[C@H](CSc1ccccc1)Nc1ccc(S(=O)(=O)NC(=O)c2ccc(N3CCC([C@@H](O)c4ccccc4-c4ccc(Cl)cc4)CC3)cc2)cc1S(=O)(=O)C(F)(F)F [AZD4320] + C[C@@H](Nc1cc(F)cc(F)c1)c1cc(C(=O)N(C)C)cc2c(=O)cc(N3CCOCC3)oc12 [AZD8186] (first compound max 1 µM, 7x7, partner max 3 µM)",0.447,0.341,0.887,0.489,0.296,0.36,0.455,0.532,0.592,0.216,0.322,0.852,0.777,0.0171,0.0407,-0.0272,0.0154,-0.12,0.0681,-0.0383
"CN(CCO)CC[C@H](CSc1ccccc1)Nc1ccc(S(=O)(=O)NC(=O)c2ccc(N3CCC([C@@H](O)c4ccccc4-c4ccc(Cl)cc4)CC3)cc2)cc1S(=O)(=O)C(F)(F)F [AZD4320] + Cc1cc2ncnn2cc1Nc1ncc2c(n1)n(C1CCOCC1)c(=O)n2C [AZD7648] (first compound max 1 µM, 7x7, partner max 10 µM)",0.265,0.159,0.896,0.415,0.174,0.0714,0.223,0.38,0.0822,0.0978,0.127,0.129,0.347,0.0104,-0.0058,-0.0473,-0.0412,-0.0592,-0.0082,-0.0234
